27 molecules from patent US20040176393A1, “Statin-MMP inhibitor combinations” (priority 1998, published 2004) can be followed below.

What all share (type): biochemical
In one assay the target is T1, MMP-2 (Gelatinase A) (Homo sapiens, UniProt P08253).
T1 sequence (P08253 110-660): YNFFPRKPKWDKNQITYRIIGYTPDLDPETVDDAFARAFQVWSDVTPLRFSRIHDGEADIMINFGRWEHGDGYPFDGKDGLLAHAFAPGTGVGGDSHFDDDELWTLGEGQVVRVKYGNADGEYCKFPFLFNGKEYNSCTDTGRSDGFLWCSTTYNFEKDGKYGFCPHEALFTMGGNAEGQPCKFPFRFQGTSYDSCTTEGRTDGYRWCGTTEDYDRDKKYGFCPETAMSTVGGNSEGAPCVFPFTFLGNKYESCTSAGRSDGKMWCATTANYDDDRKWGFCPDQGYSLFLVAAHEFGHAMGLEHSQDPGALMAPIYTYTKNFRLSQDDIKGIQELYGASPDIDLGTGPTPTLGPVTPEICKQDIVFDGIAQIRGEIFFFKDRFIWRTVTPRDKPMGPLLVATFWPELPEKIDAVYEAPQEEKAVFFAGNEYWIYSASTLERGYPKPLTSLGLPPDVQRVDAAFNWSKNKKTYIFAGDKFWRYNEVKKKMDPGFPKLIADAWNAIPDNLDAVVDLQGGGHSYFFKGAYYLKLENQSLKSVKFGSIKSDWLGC
Put plainly: thiopeptolide substrate hydrolysis assay, MMP-2. The conditions noted are these: inhibition of hydrolytic activity of the enzyme, read-out: IC50 MMP2.

The next assay has as its target MMP-3 (stromelysin) (Homo sapiens, UniProt P08254). Put plainly: thiopeptolide substrate hydrolysis assay, MMP-3. The conditions noted are these: inhibition of hydrolytic activity of the enzyme, read-out: IC50 MMP3.
Assay [1] addresses T2, MMP-1 (interstitial collagenase) (Homo sapiens, UniProt P03956).
T2 sequence (P03956 100-469): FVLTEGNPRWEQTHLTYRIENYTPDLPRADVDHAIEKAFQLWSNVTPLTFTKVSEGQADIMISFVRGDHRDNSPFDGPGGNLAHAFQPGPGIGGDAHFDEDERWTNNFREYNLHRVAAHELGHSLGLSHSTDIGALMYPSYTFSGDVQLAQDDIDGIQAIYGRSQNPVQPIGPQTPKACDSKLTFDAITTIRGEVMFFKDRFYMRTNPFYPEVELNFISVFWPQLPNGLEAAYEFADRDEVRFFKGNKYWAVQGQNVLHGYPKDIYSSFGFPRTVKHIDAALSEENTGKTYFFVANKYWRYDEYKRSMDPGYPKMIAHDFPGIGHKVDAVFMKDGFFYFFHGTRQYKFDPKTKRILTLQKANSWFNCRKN
Put plainly: thiopeptolide substrate hydrolysis assay, MMP-1. The conditions noted are these: inhibition of hydrolytic activity of the enzyme, read-out: IC50 MMP1.
Method: (§1) The assays measure the amount by which a test compound reduces the hydrolysis of a thiopeptolide substrate caused by a matrix metalloproteinase enzyme.
(§2) Thiopeptolide substrates show virtually no decomposition or hydrolysis in the absence of a matrix metalloproteinase enzyme. A typical thiopeptolide substrate commonly utilized for assays is Ac-Pro-Leu-Gly-thioester-Leu-Leu-Gly-OEt. […] Assays are carried out with and without matrix metalloproteinase inhibitor compounds, and the amount of hydrolysis is compared for a determination of inhibitory activity of the test compounds.

MMP-3 (stromelysin), sequence (P08254 100-477, species assumed): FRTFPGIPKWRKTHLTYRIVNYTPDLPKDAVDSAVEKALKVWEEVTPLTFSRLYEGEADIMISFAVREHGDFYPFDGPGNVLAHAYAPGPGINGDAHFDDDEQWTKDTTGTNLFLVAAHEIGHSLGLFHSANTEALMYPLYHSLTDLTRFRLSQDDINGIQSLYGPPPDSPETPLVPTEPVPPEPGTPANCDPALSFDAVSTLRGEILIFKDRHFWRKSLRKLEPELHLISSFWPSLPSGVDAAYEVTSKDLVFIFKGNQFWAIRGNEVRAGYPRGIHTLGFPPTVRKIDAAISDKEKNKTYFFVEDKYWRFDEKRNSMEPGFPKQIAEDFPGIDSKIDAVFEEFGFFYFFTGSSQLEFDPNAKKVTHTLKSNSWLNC
Method for MMP-2 (Gelatinase A): as §1, §2
Method for MMP-3 (stromelysin): as §1, §2

On to `O=C(O)CCC(O)c1ccc(-c2ccc(Cl)cc2)cc1` (racemic) [(±)-4-(4′-Chloro-biphenyl-4-yl)-4-hydroxy-butyric acid], for which the IC50 on MMP-2 (Gelatinase A) was found to be 150 nM; on MMP-3 (stromelysin), 280 nM.
With `O=C(O)CCC(=NO)c1ccc(-c2ccc(Br)cc2)cc1` [4-(4′-Bromo-biphenyl-4-yl)-4-hydroxyimino-butyric acid], the 50% inhibitory concentration (IC50) is 58 nM on MMP-2 (Gelatinase A) and 110 nM on MMP-3 (stromelysin).
Consider `CN(C)N=C(CCC(=O)O)c1ccc(-c2ccc(Cl)cc2)cc1` [4-(4′-Chloro-biphenyl-4-yl)-4-(dimethylhydrazono)-butyric acid], for which the values for the IC50 at MMP-2 (Gelatinase A) and on MMP-3 (stromelysin) were 730 nM and 930 nM, respectively.
Taken in the same sequence, the figures for `O=C(O)CCC(=NO)c1ccc(-c2ccc(Cl)cc2)cc1` [4-(4′-Chloro-biphenyl-4-yl)-4-hydroxyimino-butyric acid] were 390 nM and 120 nM.
On to `O=C(O)CCC(=O)c1ccc(N2CCN(c3ccccc3)CC2)cc1` [4-Oxo-4-[4-(4-phenyl-piperazin-1-yl)-phenyl]-butyric acid], for which the IC50 on MMP-2 (Gelatinase A) turned out to be 1600 nM; at MMP-3 (stromelysin), 250 nM.
For `O=C(O)CCC(=O)c1ccc(N2CCC(c3ccccc3)CC2)cc1` [4-Oxo-4-[4-(4-phenyl-piperidin-1-yl)-phenyl]-butyric acid], the IC50 was determined as 1300 nM on MMP-2 (Gelatinase A) and 140 nM on MMP-3 (stromelysin).
As to `O=C(O)[C@H](CS)NS(=O)(=O)c1ccc2oc3ccccc3c2c1` [(L)-2-(Dibenzofuran-2-sulfonylamino)-3-mercapto-propionic acid], the IC50 worked out at 4450 nM at MMP-2 (Gelatinase A) and 690 nM on MMP-3 (stromelysin).
For the molecule `CC(C)[C@H](NS(=O)(=O)c1ccc2oc3ccccc3c2c1)C(=O)O` [(L)-2-(Dibenzofuran-2-sulfonylamino)-3-methyl-butyric acid], the concentration for half-maximal inhibition (IC50) worked out at 84 nM at MMP-2 (Gelatinase A) and 230 nM at MMP-3 (stromelysin).
As to `O=C(O)[C@H](Cc1ccccc1)NS(=O)(=O)c1ccc2oc3ccccc3c2c1` [(L)-2-(Dibenzofuran-2-sulfonylamino)-3-phenyl-propionic acid], the IC50 was determined as 890 nM on MMP-2 (Gelatinase A) and 720 nM on MMP-3 (stromelysin).
`O=C(O)[C@H](CSC(c1ccccc1)(c1ccccc1)c1ccccc1)NS(=O)(=O)c1ccc2oc3ccccc3c2c1` [(L)-2-(Dibenzofuran-2-sulfonylamino)-3-tritylsulfanyl-propionic acid]: the IC50 stood at 9400 nM on MMP-2 (Gelatinase A) and 14400 nM on MMP-3 (stromelysin).
Taken in the same sequence, the figures for `CC(C)C[C@H](NS(=O)(=O)c1ccc2oc3ccccc3c2c1)C(=O)O` [(L)-2-(Dibenzofuran-2-sulfonylamino)-4-methyl-pentanoic acid] were 320 nM and 1180 nM.
For `O=C(O)[C@H](Cc1ccccc1)NS(=O)(=O)c1ccc(-c2ccc(Br)cc2)cc1` [(S)-2-(4′-Bromo-biphenyl-4-sulfonylamino)-3-phenyl-propionic acid], at MMP-2 (Gelatinase A), the IC50 was 26 nM.
For the molecule `O=C(O)[C@H](CCc1ccccc1)NS(=O)(=O)c1ccc2oc3ccccc3c2c1` [(S)-2-(Dibenzofuran-2-sulfonylamino)-4-phenyl-butyric acid], the IC50 on MMP-2 (Gelatinase A) stood at 265 nM; at MMP-3 (stromelysin) it was 460 nM.
Turning to `CC(=O)N[C@@H](CC(=O)c1ccc2oc3ccccc3c2c1)C(=O)O` [(S)-2-Acetylamino-4-dibenzofuran-2-yl-4-oxo-butyric acid], the IC50 at MMP-2 (Gelatinase A) stood at 160 nM; at MMP-3 (stromelysin) it was 1550 nM.
As for `N[C@@H](CC(=O)c1ccc2oc3ccccc3c2c1)C(=O)O` [(S)-2-Amino-4-dibenzofuran-2-yl-4-oxo-butyric acid], the half-inhibitory concentration (IC50) stood at 3800 nM on MMP-2 (Gelatinase A) and 33000 nM on MMP-3 (stromelysin).
Take `O=C(O)[C@H](Cc1ccccc1)NS(=O)(=O)c1ccc(N2CCC(Cc3ccccc3)CC2)cc1` [(S)-2-[4-(4-Benzyl-piperidin-1-yl)-benzenesulfonyl-amino]-3-phenyl-propionic acid]: the 50% inhibitory concentration (IC50) turned out to be 88 nM on MMP-2 (Gelatinase A) and 21 nM on MMP-3 (stromelysin).
`COc1ccc(N2CCN(c3ccc(S(=O)(=O)N[C@@H](Cc4ccccc4)C(=O)O)cc3)CC2)cc1` [(S)-2-{4-[-4-(4-Methoxy-phenyl)-piperazin-1-yl]-benzenesulfonylamino}-3-phenyl-propionic acid]: the IC50 on MMP-2 (Gelatinase A) amounted to 33 nM; at MMP-3 (stromelysin) it was 14 nM.
On to `CC(C)[C@H](NS(=O)(=O)c1ccc(-c2ccc([N+](=O)[O-])cc2)cc1)C(=O)O` [(S)-3-Methyl-2-(4′-nitro-biphenyl-4-sulfonylamino)-butyric acid], for which the IC50 on MMP-3 (stromelysin) was 100 nM.
Take `O=C(O)[C@H](Cc1ccccc1)NS(=O)(=O)c1ccc(N2CCC(c3ccccc3)CC2)cc1` [(S)-3-Phenyl-2-[4-(4-phenyl-piperidin-1-yl)-benzene-sulfonylamino]-propionic acid]: the IC50 amounted to 220 nM at MMP-2 (Gelatinase A) and 14 nM on MMP-3 (stromelysin).
On the same counts, the results for `O=C(C[C@H](NC(=O)C(F)(F)F)C(=O)O)c1ccc2oc3ccccc3c2c1` [(S)-4-Dibenzofuran-2-yl-4-oxo-2-(2,2,2-trifluoroacetylamino)-butyric acid] are 720 nM and 1330 nM.
In the case of `O=C(CCc1ccccc1)N[C@@H](CC(=O)c1ccc2oc3ccccc3c2c1)C(=O)O` [(S)-4-Dibenzofuran-2-yl-4-oxo-2-(3-phenyl-propionylamino)-butyric acid], the IC50 stood at 96 nM on MMP-2 (Gelatinase A) and 280 nM on MMP-3 (stromelysin).
As for `O=C(Cc1ccccc1)N[C@@H](CC(=O)c1ccc2oc3ccccc3c2c1)C(=O)O` [(S)-4-Dibenzofuran-2-yl-4-oxo-2-phenylacetylamino-butyric acid], the IC50 at MMP-2 (Gelatinase A) is 84 nM; on MMP-3 (stromelysin), 330 nM.
As for `O=C(CNS(=O)(=O)c1ccc(N2CCC(c3ccccc3)CC2)cc1)NO` [N-Hydroxy-2-[4-(4-phenyl-piperidin-1-yl)-benzene-sulfonylamino]-acetamide], the IC50 on MMP-2 (Gelatinase A) was 810 nM; at MMP-3 (stromelysin), 19 nM.
As to `O=C(CCC(=O)c1ccc(N2CCC(c3ccccc3)CC2)cc1)NO` [N-Hydroxy-4-oxo-4-[4-(4-phenyl-piperidin-1-yl)-phenyl]-butyramide], the half-maximal inhibitory concentration (IC50) is 40 nM on MMP-2 (Gelatinase A) and 20 nM on MMP-3 (stromelysin).
With `CNC(=O)[C@@H](NC(=O)[C@@H](CC(=O)NO)CC(C)C)C(C)(C)C` [RO-31-9790, reference compound], the results for the IC50 (in assay [1]; at MMP-2 (Gelatinase A); at MMP-3 (stromelysin)) were 5.5 nM, 6 nM and 470 nM, respectively.
As for `CC(C)CC(CC(=O)NO)C(=O)N[C@@H](CC(C)C)C(=O)N[C@@H](Cc1ccccc1)C(N)=O` (stereo partly shown) [U24522, reference compound], on MMP-3 (stromelysin), the IC50 worked out at 20 nM.
Regarding `O=C(O)CNS(=O)(=O)c1ccc(N2CCC(c3ccccc3)CC2)cc1` [[4-(4-Phenyl-piperidin-1-yl)-benzenesulfonylamino]-acetic acid], the IC50 came to 210 nM on MMP-2 (Gelatinase A) and 20 nM at MMP-3 (stromelysin).

The term IC50 denotes the concentration at which inhibition is half-maximal.
